HELM strings list units from the 5' end as sugar, base in round brackets, then linkage (d deoxyribose, r ribose, m 2'-O-methyl, p phosphodiester). Strings are as the collection lists them; they lack the last nucleoside at the 3' end of the tested compound. [moe] = 2'-O-(2-methoxyethyl) (MOE); [sp] = phosphorothioate linkage; [m5C] = 5-methylcytosine
Each substance was assayed against APP (assay: mouse, dose not given). Details: ASO.
In the case of “RNA1{[moe](T)[sp].[moe]([m5C])p.[moe]([m5C])p.[moe]([m5C])p.[moe](A)[sp].d(T)[sp].d(A)[sp].d([m5C])[sp].d(A)[sp].d(T)[sp].d(G)[sp].d(A)[sp].d(T)[sp].d(T)[sp].d(T)[sp].[moe](T)p.[moe](A)p.[moe](G)[sp].[moe](G)}$$$$ (last 3' nucleoside missing)”, the 3 h FOB score is reported as 1.25 score 0-7. Substance “RNA1{[moe](T)[sp].[moe]([m5C])p.[moe](A)p.[moe](G)p.[moe]([m5C])[sp].d([m5C])[sp].d([m5C])[sp].d([m5C])[sp].d(A)[sp].d(A)[sp].d(A)[sp].d(A)[sp].d(G)[sp].d(A)[sp].d(A)[sp].[moe](T)p.[moe](G)p.[moe]([m5C])[sp].[moe]([m5C])}$$$$ (last 3' nucleoside missing)” has a 3 h FOB score of 0 score 0-7. Substance “RNA1{[moe](T)[sp].[moe](A)p.[moe](G)p.[moe](G)p.[moe](A)[sp].d(A)[sp].d([m5C])[sp].d(T)[sp].d([m5C])[sp].d(G)[sp].d(A)[sp].d(A)[sp].d([m5C])[sp].d([m5C])[sp].d(A)[sp].[moe]([m5C])p.[moe]([m5C])p.[moe](T)[sp].[moe]([m5C])}$$$$ (last 3' nucleoside missing)” has a 3 h FOB score of 0.5 score 0-7. For “RNA1{[moe]([m5C])[sp].[moe](A)p.[moe](T)p.[moe](G)p.[moe]([m5C])[sp].d(G)[sp].d([m5C])[sp].d(T)[sp].d([m5C])[sp].d(A)[sp].d(T)[sp].d(A)[sp].d(A)[sp].d(A)[sp].d(T)[sp].[moe]([m5C])p.[moe](A)p.[moe]([m5C])[sp].[moe](A)}$$$$ (last 3' nucleoside missing)”, the 3 h FOB score was 3.5 score 0-7. Work on “RNA1{[moe]([m5C])[sp].[moe](T)p.[moe](T)p.[moe](A)p.[moe]([m5C])[sp].d(A)[sp].d(A)[sp].d(A)[sp].d([m5C])[sp].d(T)[sp].d([m5C])[sp].d(A)[sp].d([m5C])[sp].d([m5C])[sp].d(A)[sp].[moe](A)p.[moe]([m5C])p.[moe](T)[sp].[moe](A)}$$$$ (last 3' nucleoside missing)” yielded a 3 h FOB score of 0 score 0-7. Work on “RNA1{[moe](G)[sp].[moe](T)p.[moe](T)p.[moe](G)p.[moe](A)[sp].d(A)[sp].d(T)[sp].d(T)[sp].d(T)[sp].d([m5C])[sp].d(T)[sp].d(T)[sp].d(A)[sp].d([m5C])[sp].d(A)[sp].[moe]([m5C])p.[moe](T)p.[moe](T)[sp].[moe](T)}$$$$ (last 3' nucleoside missing)” yielded a 3 h FOB score of 0 score 0-7. With “RNA1{[moe]([m5C])[sp].[moe](T)p.[moe]([m5C])p.[moe](T)p.[moe]([m5C])p.[moe](A)[sp].d(T)[sp].d(A)[sp].d(G)[sp].d(T)[sp].d([m5C])[sp].d(T)[sp].d(T)[sp].d(A)[sp].d(A)[sp].d(T)[sp].[moe](T)p.[moe]([m5C])[sp].[moe]([m5C])}$$$$ (last 3' nucleoside missing)” the 3 h FOB score was 0.75 score 0-7. With “RNA1{[moe](A)[sp].[moe](T)p.[moe]([m5C])p.[moe](A)p.[moe]([m5C])[sp].d([m5C])[sp].d(A)[sp].d(G)[sp].d(T)[sp].d(T)[sp].d(T)[sp].d([m5C])[sp].d(A)[sp].d(T)[sp].d(A)[sp].[moe]([m5C])p.[moe](A)p.[moe]([m5C])[sp].[moe](T)}$$$$ (last 3' nucleoside missing)” the 3 h FOB score was 0.25 score 0-7. Substance “RNA1{[moe](T)[sp].[moe]([m5C])p.[moe](T)p.[moe](T)p.[moe](G)[sp].d(A)[sp].d(T)[sp].d(A)[sp].d(T)[sp].d(T)[sp].d(T)[sp].d(G)[sp].d(T)[sp].d([m5C])[sp].d(A)[sp].[moe](A)p.[moe]([m5C])p.[moe]([m5C])[sp].[moe]([m5C])}$$$$ (last 3' nucleoside missing)” has a 3 h FOB score of 5 score 0-7. In the case of “RNA1{[moe](T)[sp].[moe](A)p.[moe]([m5C])p.[moe](A)p.[moe](T)[sp].d([m5C])[sp].d(A)[sp].d(T)[sp].d(T)[sp].d(T)[sp].d(T)[sp].d([m5C])[sp].d(T)[sp].d(T)[sp].d(G)[sp].[moe]([m5C])p.[moe](A)p.[moe](G)[sp].[moe](T)}$$$$ (last 3' nucleoside missing)”, the 3 h FOB score is reported as 2.75 score 0-7. Substance “RNA1{[moe](G)[sp].[moe](G)p.[moe]([m5C])p.[moe](A)p.[moe](T)p.[moe]([m5C])p.d(A)[sp].d([m5C])[sp].d(T)[sp].d(T)[sp].d(A)[sp].d([m5C])[sp].d(A)[sp].d(A)[sp].d(A)[sp].d([m5C])[sp].[moe](T)p.[moe]([m5C])[sp].[moe](A)}$$$$ (last 3' nucleoside missing)” has a 3 h FOB score of 0 score 0-7. “RNA1{[moe](T)[sp].[moe]([m5C])p.[moe](A)p.[moe](T)p.[moe]([m5C])[sp].d(A)[sp].d([m5C])[sp].d([m5C])[sp].d(A)[sp].d(T)[sp].d(A)[sp].d([m5C])[sp].d(A)[sp].d(T)[sp].d(A)[sp].[moe](G)p.[moe]([m5C])p.[moe](A)[sp].[moe](G)}$$$$ (last 3' nucleoside missing)” showed a 3 h FOB score of 0.67 score 0-7. “RNA1{[moe](G)[sp].[moe](T)p.[moe]([m5C])p.[moe](A)p.[moe]([m5C])[sp].d(A)[sp].d(T)[sp].d(G)[sp].d(A)[sp].d(T)[sp].d(A)[sp].d(T)[sp].d(T)[sp].d(T)[sp].d([m5C])[sp].[moe](A)p.[moe](G)p.[moe](A)[sp].[moe](T)}$$$$ (last 3' nucleoside missing)” was tested, and the 3 h FOB score was 1 score 0-7. “RNA1{[moe]([m5C])[sp].[moe](A)p.[moe](A)p.[moe](A)p.[moe](G)[sp].d(A)[sp].d(T)[sp].d(T)[sp].d([m5C])[sp].d([m5C])[sp].d(A)[sp].d([m5C])[sp].d(T)[sp].d(T)[sp].d(T)[sp].[moe]([m5C])p.[moe](T)p.[moe]([m5C])[sp].[moe]([m5C])}$$$$ (last 3' nucleoside missing)” gave a 3 h FOB score of 7 score 0-7. With “RNA1{[moe](A)[sp].[moe](G)p.[moe](G)p.[moe](A)p.[moe](A)[sp].d([m5C])[sp].d(T)[sp].d([m5C])[sp].d(G)[sp].d(A)[sp].d(A)[sp].d([m5C])[sp].d([m5C])[sp].d(A)[sp].d([m5C])[sp].[moe]([m5C])p.[moe](T)p.[moe]([m5C])[sp].[moe](T)}$$$$ (last 3' nucleoside missing)” the 3 h FOB score was 1 score 0-7. For “RNA1{[moe](T)[sp].[moe](T)p.[moe](G)p.[moe](T)p.[moe](A)[sp].d(G)[sp].d(G)[sp].d(A)[sp].d(A)[sp].d([m5C])[sp].d(T)[sp].d([m5C])[sp].d(G)[sp].d(A)[sp].d(A)[sp].[moe]([m5C])p.[moe]([m5C])p.[moe](A)[sp].[moe]([m5C])}$$$$ (last 3' nucleoside missing)”, the 3 h FOB score was 2 score 0-7. “RNA1{[moe](T)[sp].[moe](T)p.[moe](T)p.[moe](G)p.[moe]([m5C])[sp].d(T)[sp].d(A)[sp].d([m5C])[sp].d(T)[sp].d(T)[sp].d(G)[sp].d(A)[sp].d(T)[sp].d(A)[sp].d(A)[sp].[moe](T)p.[moe]([m5C])p.[moe]([m5C])[sp].[moe](T)}$$$$ (last 3' nucleoside missing)” gave a 3 h FOB score of 1 score 0-7. With “RNA1{[moe](A)[sp].[moe]([m5C])p.[moe](T)p.[moe]([m5C])p.[moe](A)[sp].d([m5C])[sp].d(A)[sp].d([m5C])[sp].d(A)[sp].d([m5C])[sp].d(T)[sp].d(G)[sp].d(T)[sp].d(T)[sp].d(T)[sp].[moe]([m5C])p.[moe](A)p.[moe](A)[sp].[moe](G)}$$$$ (last 3' nucleoside missing)” the 3 h FOB score was 2.67 score 0-7. “RNA1{[moe](G)[sp].[moe]([m5C])p.[moe](A)p.[moe](T)p.[moe](G)[sp].d(T)[sp].d(T)[sp].d([m5C])[sp].d(A)[sp].d(T)[sp].d(T)[sp].d([m5C])[sp].d(T)[sp].d([m5C])[sp].d(A)[sp].[moe](T)p.[moe]([m5C])p.[moe]([m5C])[sp].[moe]([m5C])}$$$$ (last 3' nucleoside missing)” gave a 3 h FOB score of 0 score 0-7. In the case of “RNA1{[moe](A)[sp].[moe](T)p.[moe](G)p.[moe](T)p.[moe](G)[sp].d(A)[sp].d(T)[sp].d(T)[sp].d(T)[sp].d([m5C])[sp].d(A)[sp].d([m5C])[sp].d(T)[sp].d(A)[sp].d(A)[sp].[moe]([m5C])p.[moe]([m5C])p.[moe](G)[sp].[moe](G)}$$$$ (last 3' nucleoside missing)”, the 3 h FOB score is reported as 0 score 0-7. For “RNA1{[moe](T)[sp].[moe]([m5C])p.[moe](T)p.[moe](T)p.[moe]([m5C])[sp].d([m5C])[sp].d([m5C])[sp].d(A)[sp].d([m5C])[sp].d(A)[sp].d(T)[sp].d(T)[sp].d(A)[sp].d(T)[sp].d(T)[sp].[moe]([m5C])p.[moe](T)p.[moe](A)[sp].[moe](T)}$$$$ (last 3' nucleoside missing)”, the 3 h FOB score was 0 score 0-7. Substance “RNA1{[moe](G)[sp].[moe]([m5C])p.[moe](G)p.[moe](G)p.[moe](A)[sp].d([m5C])[sp].d(A)[sp].d(T)[sp].d(A)[sp].d([m5C])[sp].d(T)[sp].d(T)[sp].d([m5C])[sp].d(T)[sp].d(T)[sp].[moe](T)p.[moe](A)p.[moe](G)[sp].[moe]([m5C])}$$$$ (last 3' nucleoside missing)” has a 3 h FOB score of 0 score 0-7. “RNA1{[moe](G)[sp].[moe]([m5C])p.[moe](A)p.[moe](T)p.[moe](T)p.[moe]([m5C])[sp].d(T)[sp].d([m5C])[sp].d(T)[sp].d(T)[sp].d(A)[sp].d(T)[sp].d(A)[sp].d(T)[sp].d(T)[sp].d([m5C])[sp].[moe]([m5C])p.[moe](T)[sp].[moe](T)}$$$$ (last 3' nucleoside missing)” gave a 3 h FOB score of 1.25 score 0-7. In the case of “RNA1{[moe](G)[sp].[moe]([m5C])p.[moe](A)p.[moe]([m5C])p.[moe](T)[sp].d(A)[sp].d([m5C])[sp].d(A)[sp].d(T)[sp].d(T)[sp].d(G)[sp].d([m5C])[sp].d(T)[sp].d(T)[sp].d([m5C])[sp].[moe](A)p.[moe](T)p.[moe](A)[sp].[moe]([m5C])}$$$$ (last 3' nucleoside missing)”, the 3 h FOB score is reported as 1 score 0-7. “RNA1{[moe](G)[sp].[moe](T)p.[moe](G)p.[moe](A)p.[moe](T)[sp].d(T)[sp].d(T)[sp].d([m5C])[sp].d(A)[sp].d([m5C])[sp].d(T)[sp].d(A)[sp].d(A)[sp].d([m5C])[sp].d([m5C])[sp].[moe](G)p.[moe](G)p.[moe]([m5C])[sp].[moe](A)}$$$$ (last 3' nucleoside missing)” was tested, and the 3 h FOB score was 2 score 0-7.
